Measurements taken from patent publication US12448389B2, “BRM targeting compounds and associated methods of use” (Prelude Therapeutics Incorporated, priority 2020, dated 2025).

What was measured:
SMARCA4-HiBiT = target: T1, SMARCA4-HiBiT (Homo sapiens, UniProt P51532); assay: SMARCA4 HiBiT degradation assay in HeLa cells; assay type: cell-based; conditions: 18 hours incubation; for DC50: read-out: HeLa-HiBit-SM4 DC50; for Dmax: HeLa, read-out: HeLa-HiBit-SM4 Dmax (%)
T1 construct: SMARCA4-HiBiT knock-in Hela monoclonal cell (CS3023226); host or cells: HeLa monoclonal knock-in line (CRISPR HiBiT knock-in at the endogenous locus, heterozygous)
T1 sequence (P51532 whole entry): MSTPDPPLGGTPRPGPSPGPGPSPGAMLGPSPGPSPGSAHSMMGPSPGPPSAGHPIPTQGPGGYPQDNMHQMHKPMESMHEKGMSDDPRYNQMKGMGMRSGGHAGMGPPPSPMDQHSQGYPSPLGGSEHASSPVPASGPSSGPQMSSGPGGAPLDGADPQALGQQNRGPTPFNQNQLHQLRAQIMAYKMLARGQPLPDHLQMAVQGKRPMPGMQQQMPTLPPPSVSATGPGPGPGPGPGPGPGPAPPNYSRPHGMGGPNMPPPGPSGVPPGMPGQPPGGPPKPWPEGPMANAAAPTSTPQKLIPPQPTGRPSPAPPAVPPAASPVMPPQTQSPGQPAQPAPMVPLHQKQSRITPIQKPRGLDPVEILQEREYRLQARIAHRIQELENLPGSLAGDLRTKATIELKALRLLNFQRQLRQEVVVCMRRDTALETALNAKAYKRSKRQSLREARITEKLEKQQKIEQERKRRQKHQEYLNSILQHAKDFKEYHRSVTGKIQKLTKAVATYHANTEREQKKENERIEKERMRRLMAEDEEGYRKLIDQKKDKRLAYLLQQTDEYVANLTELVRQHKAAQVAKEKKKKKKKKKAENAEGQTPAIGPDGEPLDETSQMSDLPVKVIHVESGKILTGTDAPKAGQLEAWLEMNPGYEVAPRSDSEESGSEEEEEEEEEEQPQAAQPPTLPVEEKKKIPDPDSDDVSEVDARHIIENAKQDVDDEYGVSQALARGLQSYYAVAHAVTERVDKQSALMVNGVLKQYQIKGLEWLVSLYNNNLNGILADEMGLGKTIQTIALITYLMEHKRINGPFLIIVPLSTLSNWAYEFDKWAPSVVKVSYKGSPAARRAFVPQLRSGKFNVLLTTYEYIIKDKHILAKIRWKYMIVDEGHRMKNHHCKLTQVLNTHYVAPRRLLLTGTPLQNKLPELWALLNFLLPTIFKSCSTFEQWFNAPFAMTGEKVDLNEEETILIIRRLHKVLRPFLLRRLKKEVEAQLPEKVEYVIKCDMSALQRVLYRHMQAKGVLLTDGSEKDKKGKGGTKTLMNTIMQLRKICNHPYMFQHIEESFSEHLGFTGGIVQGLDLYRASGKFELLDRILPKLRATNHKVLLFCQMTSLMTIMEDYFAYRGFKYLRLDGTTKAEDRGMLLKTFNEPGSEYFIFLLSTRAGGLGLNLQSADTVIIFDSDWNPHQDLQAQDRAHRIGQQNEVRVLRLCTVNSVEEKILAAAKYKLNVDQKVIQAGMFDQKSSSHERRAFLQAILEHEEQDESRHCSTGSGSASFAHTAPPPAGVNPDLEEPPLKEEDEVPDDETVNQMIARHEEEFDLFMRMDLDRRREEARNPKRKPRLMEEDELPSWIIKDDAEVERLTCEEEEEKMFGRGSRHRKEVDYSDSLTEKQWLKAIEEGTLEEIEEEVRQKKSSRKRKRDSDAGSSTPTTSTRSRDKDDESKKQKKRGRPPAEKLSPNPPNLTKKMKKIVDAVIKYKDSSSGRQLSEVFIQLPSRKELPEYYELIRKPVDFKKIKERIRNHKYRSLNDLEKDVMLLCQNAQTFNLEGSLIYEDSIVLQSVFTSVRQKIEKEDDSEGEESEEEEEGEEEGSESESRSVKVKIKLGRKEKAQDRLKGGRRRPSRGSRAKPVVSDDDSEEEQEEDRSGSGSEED
Outline: (§1)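 HeLa monoclonal lines with heterozygous HiBiT knock-in were seeded at 2500 cells/well in EMEM with 10% FBS and treated with compound for 18 h at 37 °C. Remaining tagged protein was measured by Nano-Glo HiBiT lytic luminescence after 30–60 min at RT, and values came from curve fitting.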

SMARCA2-HiBiT = target: T2, SMARCA2-HiBiT (Homo sapiens, UniProt P51531); assay: SMARCA2 HiBiT degradation assay in HeLa cells; assay type: cell-based; conditions: 18 hours incubation; for DC50: read-out: HeLa_HiBit-SM2 DC50; for Dmax: HeLa, read-out: HeLa-HiBit-SM2 Dmax (%)
T2 construct: SMARCA2-HiBiT knock-in Hela monoclonal cell (CS302366); host or cells: HeLa monoclonal knock-in line (CRISPR HiBiT knock-in at the endogenous locus, heterozygous)
T2 sequence (P51531 whole entry): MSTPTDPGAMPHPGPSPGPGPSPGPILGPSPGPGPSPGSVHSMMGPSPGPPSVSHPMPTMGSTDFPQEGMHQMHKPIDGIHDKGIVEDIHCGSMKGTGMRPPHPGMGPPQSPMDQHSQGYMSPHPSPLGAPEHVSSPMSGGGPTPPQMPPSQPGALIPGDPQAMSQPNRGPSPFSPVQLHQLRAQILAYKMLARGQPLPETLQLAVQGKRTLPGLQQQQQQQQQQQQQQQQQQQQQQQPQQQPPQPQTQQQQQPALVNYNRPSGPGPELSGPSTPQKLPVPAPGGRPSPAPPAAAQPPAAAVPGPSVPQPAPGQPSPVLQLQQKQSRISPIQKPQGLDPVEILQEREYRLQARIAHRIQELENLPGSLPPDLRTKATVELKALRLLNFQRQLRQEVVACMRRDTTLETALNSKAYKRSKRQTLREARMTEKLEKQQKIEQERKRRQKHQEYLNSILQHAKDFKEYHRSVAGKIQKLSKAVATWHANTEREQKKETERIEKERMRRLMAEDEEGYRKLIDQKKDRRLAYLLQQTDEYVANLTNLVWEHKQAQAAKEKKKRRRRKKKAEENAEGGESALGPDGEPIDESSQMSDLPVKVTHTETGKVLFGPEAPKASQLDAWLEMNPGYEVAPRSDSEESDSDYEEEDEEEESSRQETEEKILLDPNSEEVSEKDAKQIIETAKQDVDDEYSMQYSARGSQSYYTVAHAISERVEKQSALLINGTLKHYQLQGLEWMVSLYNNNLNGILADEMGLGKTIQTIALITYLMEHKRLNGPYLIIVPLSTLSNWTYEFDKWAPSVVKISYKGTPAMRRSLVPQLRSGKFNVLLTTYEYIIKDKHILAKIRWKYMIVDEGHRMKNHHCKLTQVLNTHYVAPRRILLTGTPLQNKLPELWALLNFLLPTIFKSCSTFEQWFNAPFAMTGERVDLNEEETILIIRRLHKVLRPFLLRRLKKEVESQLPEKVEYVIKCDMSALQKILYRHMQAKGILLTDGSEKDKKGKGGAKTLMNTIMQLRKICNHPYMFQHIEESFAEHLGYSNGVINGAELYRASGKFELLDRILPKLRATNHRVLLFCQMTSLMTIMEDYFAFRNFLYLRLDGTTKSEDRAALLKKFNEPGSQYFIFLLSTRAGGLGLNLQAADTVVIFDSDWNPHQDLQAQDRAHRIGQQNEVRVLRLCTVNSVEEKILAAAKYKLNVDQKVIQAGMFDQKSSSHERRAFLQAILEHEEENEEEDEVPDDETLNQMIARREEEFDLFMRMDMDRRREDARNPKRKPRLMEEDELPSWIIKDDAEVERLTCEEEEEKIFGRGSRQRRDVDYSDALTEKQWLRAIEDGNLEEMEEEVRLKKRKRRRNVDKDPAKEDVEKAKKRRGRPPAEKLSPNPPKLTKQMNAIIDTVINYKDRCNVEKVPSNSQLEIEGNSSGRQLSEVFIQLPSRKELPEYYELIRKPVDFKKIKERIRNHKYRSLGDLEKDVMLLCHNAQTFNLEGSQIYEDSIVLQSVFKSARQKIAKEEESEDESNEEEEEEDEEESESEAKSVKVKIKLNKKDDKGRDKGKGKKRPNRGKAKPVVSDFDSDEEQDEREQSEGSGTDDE
Outline: as §1

Compound	DC50 (SMARCA4-HiBiT) [nM]	Dmax (SMARCA4-HiBiT) [%]	DC50 (SMARCA2-HiBiT) [nM]	Dmax (SMARCA2-HiBiT) [%]	HeLa-HiBit-SM4 Dmax (%) (SMARCA4-HiBiT)
O=C1CCC(N2C(=O)c3ccc(N4CCC(CN5CCO[C@H](CN6CCN7c8cc(-c9ccccc9O)nnc8NC[C@H]7C6)C5)CC4)cc3C2=O)C(=O)N1 (stereo partly drawn) [Example 75, 2-(2,6-dioxopiperidin-3-yl)-5-(4-(((R)-2-(((S)-2-(2-hydroxyphenyl)-5,6,6a,7,9,10-hexahydro-8H-pyrazino[1′,2′:4,5]pyrazino[2,3-c]pyridazin-8-yl)methyl)morpholino)methyl)piperidin-1-yl)isoindoline-1,3-dione]	< 10	75 to 85	< 10	75 to 85	–
O=C1CCC(N2C(=O)c3ccc(N4CCC(CN5CCC(CN6CCN7c8cc(-c9ccccc9O)nnc8NC[C@H]7C6)CC5)C4)cc3C2=O)C(=O)N1 (stereo partly drawn) [Example 225, 2-(2,6-dioxopiperidin-3-yl)-5-(3-((4-(((S)-2-(2-hydroxyphenyl)-5,6,6a,7,9,10-hexahydro-8H-pyrazino[1′,2′:4,5]pyrazino[2,3-c]pyridazin-8-yl)methyl)piperidin-1-yl)methyl)pyrrolidin-1-yl)isoindoline-1,3-dione]	< 10	> 85	< 10	> 85	–
CC1CC(C(=O)N2CCN3c4cc(-c5ccccc5O)nnc4NC[C@H]3C2)CCN1CC1CCN(c2ccc3c(c2)C(=O)N(C2CCC(=O)NC2=O)C3)CC1 (stereo partly drawn) [Example 265, 3-(6-(4-((4-((S)-2-(2-hydroxyphenyl)-6,6a,7,8,9,10-hexahydro-5H-pyrazino[1′,2′:4,5]pyrazino[2,3-c]pyridazine-8-carbonyl)-2-methylpiperidin-1-yl)methyl)piperidin-1-yl)-1-oxoisoindolin-2-yl)piperidine-2,6-dione]	10 to 100	75 to 85	< 10	75 to 85	–
O=C1CCC(N2C(=O)c3ccc(N4CCC(CN5CCC(F)(CN6CCN7c8cc(-c9ccccc9O)nnc8NC[C@H]7C6)CC5)CC4)cc3C2=O)C(=O)N1 (stereo partly drawn) [Example 175, 2-(2,6-dioxopiperidin-3-yl)-5-[4-[[4-fluoro-4-[[(10S)-4-(2-hydroxyphenyl)-1,5,6,8,12-pentazatricyclo[8.4.0.02,7]tetradeca-2,4,6-trien-12-yl]methyl]piperidin-1-yl]methyl]piperidin-1-yl]isoindole-1,3-dione]	< 10	> 85	< 10	> 85	–
CN(CCCCN1CCC(CN2CCN3c4cc(-c5ccccc5O)nnc4NC[C@H]3C2)CC1)c1ccc2c(c1)C(=O)N(C1CCC(=O)NC1=O)C2=O (stereo partly drawn) [Example 227, 2-(2,6-dioxopiperidin-3-yl)-5-((4-(4-(((S)-2-(2-hydroxyphenyl)-5,6,6a,7,9,10-hexahydro-8H-pyrazino[1′,2′:4,5]pyrazino[2,3-c]pyridazin-8-yl)methyl)piperidin-1-yl)butyl)(methyl)amino)isoindoline-1,3-dione]	10 to 100	50 to 75	< 10	50 to 75	–
O=C1CCC(N2C(=O)c3ccc(C4CCN(CC5CCN(C(=O)N6CCN7c8cc(-c9ccccc9O)nnc8NC[C@H]7C6)CC5)CC4)cc3C2=O)C(=O)N1 (stereo partly drawn) [Example 144, 2-(2,6-dioxopiperidin-3-yl)-5-(1-((1-((S)-2-(2-hydroxyphenyl)-6,6a,7,8,9,10-hexahydro-5H-pyrazino[1′,2′:4,5]pyrazino[2,3-c]pyridazine-8-carbonyl)piperidin-4-yl)methyl)piperidin-4-yl)isoindoline-1,3-dione]	< 10	75 to 85	< 10	75 to 85	–
O=C1CCC(N2C(=O)c3ccc(N4CC[C@@H](CN5C[C@@H]6[C@H](C5)[C@H]6CN5CCN6c7cc(-c8ccccc8O)nnc7NC[C@H]6C5)[C@H](F)C4)cc3C2=O)C(=O)N1 (stereo partly drawn) [Example 200, 2-(2,6-dioxopiperidin-3-yl)-5-[(3S,4S)-3-fluoro-4-[[(1S,5R)-6-[[(10S)-4-(2-hydroxyphenyl)-1,5,6,8,12-pentazatricyclo [8.4.0.02,7]tetradeca-2(7),3,5-trien-12-yl]methyl]-3-azabicyclo[3.1.0]hexan-3-yl]methyl]piperidin-1-yl]isoindole-1,3-dione]	< 10	–	< 10	75 to 85	C (C=50%<Dmax<=75%)
O=C1CCC(n2c3ccc(CCCN4CCC(N5CCN(C6C[C@@H]7CNc8nnc(-c9ccccc9O)cc8N7C6)CC5)CC4)cc3c3cccnc32)C(=O)N1 (stereo partly drawn) [Example 27, 3-(6-(3-(4-(4-((6aR)-2-(2-hydroxyphenyl)-5,6,6a,7,8,9-hexahydropyrrolo [1′,2′:4,5]pyrazino[2,3-c]pyridazin-8-yl)piperazin-1-yl)piperidin-1-yl)propyl)-9H-pyrido[2,3-b]indol-9-yl)piperidine-2,6-dione]	< 10	50 to 75	< 10	50 to 75	–
O=C1CCC(N2C(=O)c3ccc(N4CCC(CN5CCC(CN6CCN7c8cc(-c9ccccc9O)nnc8NC[C@H]7C6)CC5)CC4)cc3C2=O)C(=O)N1 (stereo partly drawn) [Example 31, 2-(2,6-dioxopiperidin-3-yl)-5-(4-((4-(((S)-2-(2-hydroxyphenyl)-5,6,6a,7,9,10-hexahydro-8H-pyrazino[1′,2′:4,5]pyrazino[2,3-c]pyridazin-8-yl)methyl)piperidin-1-yl)methyl)piperidin-1-yl)isoindoline-1,3-dione]	< 10	> 85	< 10	> 85	–
O=C1CCC(N2C(=O)c3ccc(N4CCC(CN5C[C@@H]6[C@H](C5)[C@@H]6CN5CCN6c7cc(-c8ccccc8O)nnc7NC[C@H]6C5)CC4)cc3C2=O)C(=O)N1 (stereo partly drawn) [Example 43, 2-(2,6-dioxopiperidin-3-yl)-5-(4-(((1R,5S,6s)-6-(((S)-2-(2-hydroxyphenyl)-5,6,6a,7,9,10-hexahydro-8H-pyrazino[1′,2′:4,5]pyrazino[2,3-c]pyridazin-8-yl)methyl)-3-azabicyclo[3.1.0]hexan-3-yl)methyl)piperidin-1-yl)isoindoline-1,3-dione]	< 10	50 to 75	< 10	> 85	–
O=C1CCC(N2Cc3cc(CCN4CCC(N5CCC(N6CCN7c8cc(-c9ccccc9O)nnc8NC[C@H]7C6)CC5)CC4)ccc3C2=O)C(=O)N1 (stereo partly drawn) [Example 62, 3-(5-(2-(4-((S)-2-(2-hydroxyphenyl)-5,6,6a,7,9,10-hexahydro-8H-pyrazino[1′,2′:4,5]pyrazino[2,3-c]pyridazin-8-yl)-[1,4′-bipiperidin]-1′-yl)ethyl)-1-oxoisoindolin-2-yl)piperidine-2,6-dione]	< 10	> 85	< 10	> 85	–
O=C1CCC(N2Cc3ccc(N4CC(CN5CCC(CN6CCN7c8cc(-c9ccccc9O)nnc8NC[C@H]7C6)CC5)C4)cc3C2=O)C(=O)N1 (stereo partly drawn) [Example 276, 3-(6-(3-((4-(((S)-2-(2-hydroxyphenyl)-5,6,6a,7,9,10-hexahydro-8H-pyrazino[1′,2′:4,5]pyrazino[2,3-c]pyridazin-8-yl)methyl)piperidin-1-yl)methyl)azetidin-1-yl)-1-oxoisoindolin-2-yl) piperidine-2,6-dione]	< 10	> 85	< 10	> 85	–
O=C1CCC(N2C(=O)c3ccc(N4CCN(CCN5CCO[C@H](CN6CCN7c8cc(-c9ccccc9O)nnc8NC[C@H]7C6)C5)CC4)cc3C2=O)C(=O)N1 (stereo partly drawn) [Example 159, 2-(2,6-dioxopiperidin-3-yl)-5-(4-(2-((R)-2-(((S)-2-(2-hydroxyphenyl)-5,6,6a,7,9,10-hexahydro-8H-pyrazino[1′,2′:4,5]pyrazino[2,3-c]pyridazin-8-yl)methyl)morpholino)ethyl)piperazin-1-yl)isoindoline-1,3-dione]	< 10	50 to 75	< 10	> 85	–
O=C1CCC(N2C(=O)c3ccc(N4CCC(CNC56CC(CN7CCN8c9cc(-c%10ccccc%10O)nnc9NC[C@H]8C7)(C5)C6)CC4)cc3C2=O)C(=O)N1 (stereo partly drawn) [Example 134, 2-(2,6-dioxopiperidin-3-yl)-5-(4-(((3-(((S)-2-(2-hydroxyphenyl)-5,6,6a,7,9,10-hexahydro-8H-pyrazino[1′,2′:4,5]pyrazino[2,3-c]pyridazin-8-yl)methyl)bicyclo[1.1.1]pentan-1-yl)amino)methyl)piperidin-1-yl)isoindoline-1,3-dione]	< 10	50 to 75	< 10	75 to 85	–
O=C1CCC(N2C(=O)c3ccc(N4CC5(CC(N6C[C@@H]7[C@@H](CN8CCN9c%10cc(-c%11ccccc%11O)nnc%10NC[C@H]9C8)[C@@H]7C6)C5)C4)cc3C2=O)C(=O)N1 (stereo partly drawn) [Example 259, 2-(2,6-dioxopiperidin-3-yl)-5-(6-((1R,5S,6s)-6-(((S)-2-(2-hydroxyphenyl)-5,6,6a,7,9,10-hexahydro-8H-pyrazino[1′,2′:4,5]pyrazino[2,3-c]pyridazin-8-yl)methyl)-3-azabicyclo[3.1,0]hexan-3-yl)-2-azaspiro[3.3]heptan-2-yl)isoindoline-1,3-dione]	< 10	75 to 85	< 10	> 85	–
O=C1CCC(N2C(=O)c3ccc(N4CCC(CCN5CCC(CN6CCN7c8cc(-c9ccccc9O)nnc8NC[C@H]7C6)CC5)CC4)cc3C2=O)C(=O)N1 (stereo partly drawn) [Example 224, 2-(2,6-dioxopiperidin-3-yl)-5-(4-(2-(4-(((S)-2-(2-hydroxyphenyl)-5,6,6a,7,9,10-hexahydro-8H-pyrazino[1′,2′:4,5]pyrazino[2,3-c]pyridazin-8-yl)methyl)piperidin-1-yl)ethyl)piperidin-1-yl)isoindoline-1,3-dione]	< 10	75 to 85	< 10	75 to 85	–
